# Measurements: US20230103791A1 (GLAXOSMITHKLINE INTELLECTUAL PROPERTY DEVELOPMENT LIMITED, priority 2019, published 2023)
# Molecular target: T1, human Nav1.8 (Homo sapiens, UniProt Q9Y5Y9)
# T1 construct: expressed in transfected cells; host or cells: HEK293 (HEK293-Nav1.8)
# Test: Nav1.8 sodium channels assay, QPatch 48 HTX electrophysiology in HEK293-Nav1.8 cells
# Format: cell-based
# Settings: Table 1; HEK293-Nav1.8, QPatch 48 HTX, half inactivation state voltage protocol (V1/2); single run or average of two or more runs; read-out: Nav1.8 pIC50 (converted)
# How it was run: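 HEK293 cells co-expressing human Nav1.8, Navβ1 and TREK1 were voltage-clamped on QPatch 48 HTX. The V1/2 protocol ran at 0.07 Hz: hold −100 mV, 20 ms to 0 mV, 8 s at −46 mV, 20 ms at −100 mV, then 20 ms at 0 mV (P2). P2 current was fitted over 6-8 concentrations for IC50, with vehicle wells used to correct for run-down.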
# T1 sequence (Q9Y5Y9 whole entry): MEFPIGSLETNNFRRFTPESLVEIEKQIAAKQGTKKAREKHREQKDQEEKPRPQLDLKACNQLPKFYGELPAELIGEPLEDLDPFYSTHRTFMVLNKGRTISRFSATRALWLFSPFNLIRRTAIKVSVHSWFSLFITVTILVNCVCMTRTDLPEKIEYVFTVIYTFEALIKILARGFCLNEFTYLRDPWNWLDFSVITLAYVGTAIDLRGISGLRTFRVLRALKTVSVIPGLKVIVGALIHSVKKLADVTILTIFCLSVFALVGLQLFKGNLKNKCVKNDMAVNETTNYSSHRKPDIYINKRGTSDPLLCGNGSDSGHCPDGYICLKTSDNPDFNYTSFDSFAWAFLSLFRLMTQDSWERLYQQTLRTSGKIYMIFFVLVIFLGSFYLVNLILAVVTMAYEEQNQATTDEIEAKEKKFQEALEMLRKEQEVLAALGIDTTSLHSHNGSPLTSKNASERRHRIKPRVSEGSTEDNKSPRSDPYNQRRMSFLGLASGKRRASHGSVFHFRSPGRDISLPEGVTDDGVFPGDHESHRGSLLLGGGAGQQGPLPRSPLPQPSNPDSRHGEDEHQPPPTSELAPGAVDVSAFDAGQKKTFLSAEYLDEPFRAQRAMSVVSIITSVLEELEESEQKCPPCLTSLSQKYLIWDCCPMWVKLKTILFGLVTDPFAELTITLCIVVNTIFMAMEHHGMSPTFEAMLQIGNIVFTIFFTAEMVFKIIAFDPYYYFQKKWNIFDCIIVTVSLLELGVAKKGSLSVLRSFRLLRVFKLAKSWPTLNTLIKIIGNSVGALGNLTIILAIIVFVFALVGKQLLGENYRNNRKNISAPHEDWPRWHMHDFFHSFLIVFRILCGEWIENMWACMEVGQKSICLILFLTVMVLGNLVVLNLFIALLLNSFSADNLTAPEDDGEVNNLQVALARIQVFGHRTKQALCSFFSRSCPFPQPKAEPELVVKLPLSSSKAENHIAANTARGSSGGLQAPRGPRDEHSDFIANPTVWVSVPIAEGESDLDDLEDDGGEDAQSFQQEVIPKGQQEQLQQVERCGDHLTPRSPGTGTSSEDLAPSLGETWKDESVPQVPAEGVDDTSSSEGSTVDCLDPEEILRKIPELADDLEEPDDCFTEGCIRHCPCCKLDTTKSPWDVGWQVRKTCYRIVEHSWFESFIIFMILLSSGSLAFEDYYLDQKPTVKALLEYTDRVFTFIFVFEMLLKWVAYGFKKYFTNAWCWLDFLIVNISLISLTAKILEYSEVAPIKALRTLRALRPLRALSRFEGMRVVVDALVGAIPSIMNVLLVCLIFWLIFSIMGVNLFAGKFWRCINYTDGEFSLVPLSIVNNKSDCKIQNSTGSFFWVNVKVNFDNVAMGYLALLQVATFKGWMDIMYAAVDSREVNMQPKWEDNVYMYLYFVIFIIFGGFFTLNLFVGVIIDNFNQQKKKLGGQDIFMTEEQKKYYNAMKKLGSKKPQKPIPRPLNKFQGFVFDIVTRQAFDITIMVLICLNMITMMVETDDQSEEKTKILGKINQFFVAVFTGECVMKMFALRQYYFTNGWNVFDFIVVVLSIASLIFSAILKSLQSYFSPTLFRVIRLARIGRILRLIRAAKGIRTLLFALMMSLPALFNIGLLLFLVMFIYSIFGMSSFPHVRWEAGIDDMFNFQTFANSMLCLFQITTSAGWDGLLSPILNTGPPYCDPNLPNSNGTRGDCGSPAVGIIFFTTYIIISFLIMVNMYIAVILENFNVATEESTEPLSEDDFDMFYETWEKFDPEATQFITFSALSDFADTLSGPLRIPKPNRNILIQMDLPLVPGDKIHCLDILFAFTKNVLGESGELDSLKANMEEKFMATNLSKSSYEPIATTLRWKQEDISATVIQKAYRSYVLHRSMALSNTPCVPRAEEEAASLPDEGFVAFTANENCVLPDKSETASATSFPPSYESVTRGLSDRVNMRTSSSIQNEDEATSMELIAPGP
# T1 sequence (Q07699 19-218 partner): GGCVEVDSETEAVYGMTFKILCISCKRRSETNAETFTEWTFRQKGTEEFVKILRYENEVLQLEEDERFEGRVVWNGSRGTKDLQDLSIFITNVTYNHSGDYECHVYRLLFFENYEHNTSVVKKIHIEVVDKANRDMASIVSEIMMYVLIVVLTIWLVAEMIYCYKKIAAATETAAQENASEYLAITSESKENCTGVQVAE
row,Compound,IC50 [µM]
1,"Cc1cc(F)ccc1N1c2cc(C(F)(F)F)ccc2C(=O)N(c2ccc(=O)[nH]c2)C1C (stereo not shown) [drawing 275, 1-(4-fluoro-2-methylphenyl)-2-methyl-3-(6-oxo-1,6-dihydropyridin-3-yl)-7-(trifluoromethyl)-2,3-dihydroquinazolin-4(1H)-one]",1.26
2,"O=C1c2ccc(C(F)(F)F)cc2N(c2ccc(F)cc2Cl)CN1c1ccc(=O)[nH]c1 [drawing 276, 1-(2-chloro-4-fluorophenyl)-3-(6-oxo-1,6-dihydropyridin-3-yl)-7-(trifluoromethyl)-2,3-dihydroquinazolin-4(1H)-one]",0.501
3,"O=C1c2ccc(C(F)(F)F)cc2N(c2ccc(F)cc2OCCO)CN1c1ccc(=O)[nH]c1 [drawing 277, 1-(4-fluoro-2-(2-hydroxyethoxy)phenyl)-3-(6-oxo-1,6-dihydropyridin-3-yl)-7-(trifluoromethyl)-2,3-dihydroquinazolin-4(1H)-one]",6.31
4,"O=C1c2ccc(C(F)(F)F)cc2N(c2ccc(F)cc2F)CN1c1ccc(=O)[nH]c1 [drawing 278, 1-(2,4-difluorophenyl)-3-(6-oxo-1,6-dihydropyridin-3-yl)-7-(trifluoromethyl)-2,3-dihydroquinazolin-4(1H)-one]",0.794
5,"Cc1cc(F)ccc1N1CN(c2ccc(=O)[nH]c2)C(=O)c2ccc(C#N)cc21 [drawing 279, 1-(4-fluoro-2-methylphenyl)-4-oxo-3-(6-oxo-1,6-dihydropyridin-3-yl)-1,2,3,4-tetrahydroquinazoline-7-carbonitrile]",1.58
6,"CCc1cc(F)ccc1N1CN(c2ccc(=O)[nH]c2)C(=O)c2ccc(C(F)(F)F)cc21 [drawing 280, 1-(2-ethyl-4-fluorophenyl)-3-(6-oxo-1,6-dihydropyridin-3-yl)-7-(trifluoromethyl)-2,3-dihydroquinazolin-4(1H)-one]",0.251
7,"COc1cc(F)ccc1N1CN(c2ccc(=O)[nH]c2)C(=O)c2c1cccc2C(F)(F)F [drawing 281, 1-(4-fluoro-2-methoxyphenyl)-3-(6-oxo-1,6-dihydropyridin-3-yl)-5-(trifluoromethyl)-2,3-dihydroquinazolin-4(1H)-one]",6.31
8,"Cc1cc(F)ccc1N1CN(c2ccc(=O)[nH]c2)C(=O)c2ccc(C(F)(F)F)c(Cl)c21 [drawing 282, 8-chloro-1-(4-fluoro-2-methylphenyl)-3-(6-oxo-1,6-dihydropyridin-3-yl)-7-(trifluoromethyl)-2,3-dihydroquinazolin-4(1H)-one]",6.31
9,"Cc1cc(Br)ccc1N1CN(c2ccc(=O)[nH]c2)C(=O)c2ccc(C(F)(F)F)cc21 [drawing 283, 1-(4-bromo-2-methylphenyl)-3-(6-oxo-1,6-dihydropyridin-3-yl)-7-(trifluoromethyl)-2,3-dihydroquinazolin-4(1H)-one]",0.316
10,"Cc1cc(F)ccc1N1CN(c2ccc(=O)[nH]c2)C(=O)c2ccc(C(F)(F)F)c(C)c21 [drawing 284, 1-(4-fluoro-2-methylphenyl)-8-methyl-3-(6-oxo-1,6-dihydropyridin-3-yl)-7-(trifluoromethyl)-2,3-dihydroquinazolin-4(1H)-one]",6.31
11,"Cc1[nH]c(=O)ccc1N1CN(c2ccc(F)cc2)c2cc(C(F)(F)F)ccc2C1=O [drawing 285, 1-(4-fluorophenyl)-3-(2-methyl-6-oxo-1,6-dihydropyridin-3-yl)-7-(trifluoromethyl)-2,3-dihydroquinazolin-4(1H)-one]",0.126
12,"Cc1cc(F)ccc1N1CN(c2ccc(=O)[nH]c2C)C(=O)c2cc(C(F)(F)F)ccc21 [drawing 286, 1-(4-fluoro-2-methylphenyl)-3-(2-methyl-6-oxo-1,6-dihydropyridin-3-yl)-6-(trifluoromethyl)-2,3-dihydroquinazolin-4(1H)-one]",0.0158
13,"Cc1cc(C#N)ccc1N1CN(c2ccc(=O)[nH]c2C)C(=O)c2ccc(C(F)(F)F)cc21 [drawing 287, 3-methyl-4-(3-(2-methyl-6-oxo-1,6-dihydropyridin-3-yl)-4-oxo-7-(trifluoromethyl)-3,4-dihydroquinazolin-1(2H)-yl)benzonitrile]",0.0631
